Reference: US20220144826A1, “Heteroaromatic and Heterobicyclic Aromatic Derivatives for the Treatment of Ferroptosis-Related Disorders” (COLLABORATIVE MEDICINAL DEVELOPMENT, LLC, priority 2019, published 2022)

The compounds below were run on N27 rat dopaminergic neural cells (assay: MTT assay in N27 rat dopaminergic neural cells: inhibition of RSL3-induced cell death (ferroptosis)). Settings: Rattus norvegicus, N27, 24 h, ferroptosis induced by 0.5 μM RSL3, 24 hours, viability by MTT.
Format: cell-based
Experimental: MTT Assay in N27 Rat Dopaminergic Neural Cells
N27 rat dopaminergic neural cells (Millipore, SCC048) were cultured in RPMI-1640 media (Wisent, 350-000) supplemented with 1×GlutaMAX (Gibco, 35050-061), 10% FBS (embryonic stem cell qualified; Wisent, 920-040), and 1× Penicillin-Streptomycin (Wisent, 450-201). Cells were grown in humidified tissue culture incubator at 37° C. with 5% CO2, for up to 10 passages. To evaluate the ability of test compounds to inhibit RSL3-induced cell death, N27 cells were seeded in clear 96-well tissue culture plates (Sarstedt, 83.3924) at a density of 15,000 cells/well. On the next day, the medium was changed to fresh complete RPMI-1640. Eight-point dilution series of test compounds were added to the cells. Then, ferroptosis was induced by addition of 0.5 μM RSL3 (vehicle-treated cells served as control). Ferrostatin-1 (Fer-1) was included in each assay as control inhibitor of ferroptosis. Plates were incubated for 24 hours at 37° C. in a tissue culture incubator, then cell viability was determined by MTT assay. Briefly, Thiazolyl Blue Tetrazolium Bromide [3-(4,5-dimethylthiazol-2-yl)-2,5-diphenyltetrazolium bromide or “MTT” ] (Sigma) stock solution (5 mg/mL in PBS, sterilized by filtration) was diluted 1:1 with complete growth medium, and added on the cells to a final concentration of 0.5 mg/mL. Cells were incubated with MTT for 4 hours at 37° C., protected from light, in a humidified, 5% CO2 atmosphere. Medium was then completely removed from the wells by gentle aspiration and converted MTT formazan crystals were dissolved in 150 μL of DMSO. Absorbance of converted dye was measured at 595 nm with background subtraction at 690 nm using the BioTek Cytation5 Microplate Reader. Blank reading (absorbance from wells containing media and vehicle only, no cells) was removed from all sample wells. Viability was calculated as a percentage of control cells (vehicle-treated cells were set as 100% viability). Dose-response curves were drawn and IC50 values were calculated using GraphPad Prism software, version 7.

First: CCCCC(O)c1nc2c(c(N3CCCC3)n1)NCCC2 (stereo not drawn) [Compound E-09]
Second: CCCCCc1nc2c(c(NC3CCCC3)n1)NCCC2 [Compound B-349, N-Cyclopentyl-2-pentyl-5,6,7,8-tetrahydropyrido[3,2-d]pyrimidin-4-amine]
The IC50 of the first is 2.9-fold higher: 492 nM for the first, 170 nM for the second.

First: N#Cc1nc2c(c(NC3CCCC3)n1)NCCC2 [Compound F-38, 4-(cyclopentylamino)-5,6,7,8-tetrahydropyrido[3,2-d]pyrimidine-2-carbonitrile]
Second: CC(=O)c1nc2c(c(NC3CCCC3)n1)NCCC2 [Compound C-92, 1-[4-(cyclopentylamino)-5,6,7,8-tetrahydropyrido[3,2-d]pyrimidin-2-yl]ethanone]
The IC50 of the first is 2.5-fold lower: 812 nM for the first, 2070 nM for the second. The first is the more potent here.

Going from CCCCC(O)c1cc2c(c(NC(C)(C)C)n1)NCC(C(F)(F)F)C2 (stereo not drawn) [Compound R-812, 1-[8-(tert-butylamino)-3-(trifluoromethyl)-1,2,3,4-tetrahydro-1,7-naphthyridin-6-yl]pentan-1-ol] to CCCCC(=O)c1cc2c(c(NC(C)(C)C)n1)NCCC2 [Compound S-168, 1-[8-(tert-butylamino)-1,2,3,4-tetrahydro-1,7-naphthyridin-6-yl]pentan-1-one], the IC50 falls from 40 nM to 13 nM (3.1-fold).

c1ncc(-c2ccc(NC3COC3)c(NC3CCCC3)n2)cn1 [Compound H-84, N^2-cyclopentyl-N^3-(oxetan-3-yl)-6-pyrimidin-5-yl-pyridine-2,3-diamine] and c1cncc(-c2ccc(NC3COC3)c(NC3CCCC3)n2)c1 [Compound H-75, N^2-cyclopentyl-N^3-(oxetan-3-yl)-6-(3-pyridyl)pyridine-2,3-diamine] are within 1.5-fold of each other in IC50: 32 nM for the first, 44 nM for the second.

Going from CCCCCc1nc(NC2CCOC2)c2c(n1)OCCN2 (stereo not drawn) [Compound B-604, 2-pentyl-N-tetrahydrofuran-3-yl-6,7-dihydro-5H-pyrimido[4,5-b][1,4]oxazin-4-amine] to CCCCCc1nc(NC2CCCC2)c2c(n1)SCCN2 [Compound B-601, N-cyclopentyl-2-pentyl-5H,6H,7H-pyrimido[4,5-b][1,4]thiazin-4-amine], the IC50 falls from 388 nM to 3 nM (130-fold). The second is the more potent here.

CCC(C)Nc1cnc(-c2cccnc2)nc1NC1CCCC1 (stereo not drawn) [Compound F-78, N^4-cyclopentyl-2-(3-pyridyl)-N^5-sec-butyl-pyrimidine-4,5-diamine] and CCC(C)Nc1cnc(-c2ccncc2)nc1NC1CCCC1 (stereo not drawn) [Compound F-88, N^4-cyclopentyl-2-(4-pyridyl)-N^5-sec-butyl-pyrimidine-4,5-diamine] are within 1.5-fold of each other in IC50: 89 nM for the first, 106 nM for the second.

Going from CCCCNc1nc2c(c(NC3CCCC3)n1)NCCC2 [Compound B-433, N2-Butyl-N4-cyclopentyl-5,6,7,8-tetrahydropyrido[3,2-d]pyrimidine-2,4-diamine] to CC(C)(C)C(=O)c1nc2c(c(NC3CCCC3)n1)NCCC2 [Compound A-35, 1-[4-(cyclopentylamino)-5,6,7,8-tetrahydropyrido[3,2-d]pyrimidin-2-yl]-2,2-dimethyl-propan-1-one], the IC50 falls from 726 nM to 248 nM (2.9-fold).

First: CCCCCc1nc2c(c(NC3CCCC3)n1)NC(C)(C)CC2 [Compound B-917, N-cyclopentyl-6,6-dimethyl-2-pentyl-5H,6H,7H,8H-pyrido[3,2-d]pyrimidin-4-amine]
Second: c1cc(-c2nc3c(c(NC4CCCC4)n2)NCCC3)ccn1 [Compound A-34, N-cyclopentyl-2-(4-pyridyl)-5,6,7,8-tetrahydropyrido[3,2-d]pyrimidin-4-amine]
The IC50 of the first is higher: greater than 3000 nM for the first, 57 nM for the second. The second is the more potent here.

Compared with O=C(c1ccc(F)cc1)c1nc2c(c(NC3CCCC3)n1)NCCC2 [Compound A-17, [4-(cyclopentylamino)-5,6,7,8-tetrahydropyrido[3,2-d]pyrimidin-2-yl]-(4-fluorophenyl)methanone], O=C(c1ccccc1)c1nc2c(c(NC3CCCC3)n1)NCCC2 [Compound A-16, [4-(cyclopentylamino)-5,6,7,8-tetrahydropyrido[3,2-d]pyrimidin-2-yl]-phenyl-methanone] is 2.3-fold higher in IC50: 123 nM for the first, 285 nM for the second. The first is the more potent here.

Going from CC1(Nc2nc(-c3ccccn3)ccc2NC2CCOC2)CCOC1 [Compound L-23, N^2-(3-methyltetrahydrofuran-3-yl)-6-(2-pyridyl)-N^3-tetrahydrofuran-3-yl-pyridine-2,3-diamine] to CC1(Nc2nc(C(F)(F)F)ccc2NC2CCOC2)CCOC1 (stereo not drawn) [Compound K-67, N^2-(3-methyltetrahydrofuran-3-yl)-N^3-tetrahydrofuran-3-yl-6-(trifluoromethyl)pyridine-2,3-diamine], the IC50 rises from 141 nM to 355 nM (2.5-fold).

Going from CCCC(=O)c1ccc(N)c(NC2CC(F)(F)C2)n1 [Compound P-46, 1-[5-amino-6-[(3,3-difluorocyclobutyl)amino]-2-pyridyl]butan-1-one] to CCOC(=O)c1cc(N)c2c(c1)CCC(C)(C)N2 [Compound B-256], the IC50 rises from 498 nM to 3820 nM (7.7-fold). The first is the more potent here.

Going from CCC(C)Nc1cnc(-c2cncnc2)nc1NC1CCCC1 (stereo not drawn) [Compound F-81, N^4-cyclopentyl-2-pyrimidin-5-yl-N^5-sec-butyl-pyrimidine-4,5-diamine] to CC(C)(C)Nc1ccc(-c2ccncc2)nc1NC1CCCC1 [Compound L-04, N^3-tert-butyl-N^2-cyclopentyl-6-(4-pyridyl)pyridine-2,3-diamine], the IC50 falls from 121 nM to 5 nM (24-fold).

Going from CCCCC(=O)c1cc(N)c2c(c1)CCCN2Cc1ccccc1 [Compound B-133] to CCCCC(=O)c1cc2c(c(-n3ccnc3)c1)NCCC2 [Compound B-006, 1-(8-imidazol-1-yl-1,2,3,4-tetrahydroquinolin-6-yl)pentan-1-one], the IC50 rises from 2900 nM to greater than 3000 nM.

Compared with CCC/C=C/c1nc(NC2CCOC2)c2c(n1)OCC(=O)N2 (stereo not drawn) [Compound B-603, 4-[(oxolan-3-yl)amino]-2-[(1E)-pent-1-en-1-yl]-5H,6H,7H-pyrimido[4,5-b][1,4]oxazin-6-one], CCCCC(=O)c1cc2c(c(NC3CCOC3)c1)NCCC2 (stereo not drawn) [Compound Q-879, 1-[8-(tetrahydrofuran-3-ylamino)-1,2,3,4-tetrahydroquinolin-6-yl]pentan-1-one] is lower in IC50: greater than 3000 nM for the first, 16.8 nM for the second. The second is the more potent here.

Compared with CC1(Nc2nc(-c3ccc(F)cc3)nc3c2NCCC3)CCOC1 (stereo not drawn) [Compound M-14, 2-(4-fluorophenyl)-N-(3-methyltetrahydrofuran-3-yl)-5,6,7,8-tetrahydropyrido[3,2-d]pyrimidin-4-amine], CC1(Nc2nc(-c3ccncc3)nc3c2NCCC3)CCOC1 (stereo not drawn) [Compound P-71, N-(3-methyltetrahydrofuran-3-yl)-2-(4-pyridyl)-5,6,7,8-tetrahydropyrido[3,2-d]pyrimidin-4-amine] is 16-fold higher in IC50: 29 nM for the first, 463 nM for the second.

CCOC(=O)c1cc2c(c(NC3CCCC3)c1)NC(=O)CC2 [Compound B-148] and CCOC(=O)c1cc(N)c2c(c1)OCCN2 [Compound I-85] cannot be ordered by IC50: 1670 nM for the first, greater than 1000 nM for the second.

Going from Cc1ccc(-c2ccc(NC(C)(C)C)c(NC(C)(C)C)n2)cc1 [Compound L-03, N^2,N^3-di-tert-butyl-6-(p-tolyl)pyridine-2,3-diamine] to CCCCC(=O)c1nc2c(c(NC(C)(C)C)n1)NCCC2 [Compound A-06, 1-[4-(tert-butylamino)-5,6,7,8-tetrahydropyrido[3,2-d]pyrimidin-2-yl]pentan-1-one], the IC50 rises from 14 nM to 76 nM (5.4-fold).

First: CON(C)C(=O)c1ccc2c(c1)C=CC(C)(C)N2 [Compound B-065]
Second: C(#Cc1nc2c(c(NC3CCCC3)n1)NCCC2)c1ccccc1 [Compound C-91, N-cyclopentyl-2-(2-phenylethynyl)-5,6,7,8-tetrahydropyrido[3,2-d]pyrimidin-4-amine]
The IC50 of the first is higher: greater than 3000 nM for the first, 35 nM for the second. The second is the more potent here.
